# In PubChem BioAssay AID1963863 (Molecular Pharmacology Branch, DTP, NCI, 2024):
# System: 931267-113-T-J1-PDC KRAS spheroid with HUVEC/MSC, viability
# Assay: Anticancer human tumor 931267-113-T-J1-PDC patient-derived colon adenocarcinoma cell line growth inhibition [KRAS2]
# Conditions: for IC50: curve of first compound; for viability, T/C: stronger effect = lower value
# How it was run: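 KRAS-mutant tumor cells were grown as spheroids with HUVEC endothelial cells and human MSCs as stroma. Targeted agents were tested alone and with KRAS pathway inhibitors. Doses started at or near clinical Cmax, or 10 microM, descending half-log.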
# [1] = second compound 0.1 µM, first compound 0.000316 µM
# [2] = second compound 0.1 µM, first compound 0.001 µM
# [3] = second compound 0.1 µM, first compound 0.00316 µM
# [4] = second compound 0.1 µM, first compound 0.01 µM
# [5] = second compound 0.1 µM, first compound 0.0316 µM
# [6] = second compound 0.1 µM, first compound 0.1 µM
# [7] = second compound 0.316 µM, first compound 0.000316 µM
# [8] = second compound 0.316 µM, first compound 0.001 µM
# [9] = second compound 0.316 µM, first compound 0.00316 µM
# [10] = second compound 0.316 µM, first compound 0.01 µM
# [11] = second compound 0.316 µM, first compound 0.0316 µM
# [12] = second compound 0.316 µM, first compound 0.1 µM
# [13] = second compound 1 µM, first compound 0.000316 µM
# [14] = second compound 1 µM, first compound 0.001 µM
# [15] = second compound 1 µM, first compound 0.00316 µM
# [16] = second compound 1 µM, first compound 0.01 µM
# [17] = second compound 1 µM, first compound 0.0316 µM
# [18] = second compound 1 µM, first compound 0.1 µM
# [19] = second compound 3.16 µM, first compound 0.000316 µM
# [20] = second compound 3.16 µM, first compound 0.001 µM
# [21] = second compound 3.16 µM, first compound 0.00316 µM
# [22] = second compound 3.16 µM, first compound 0.01 µM
# [23] = second compound 3.16 µM, first compound 0.0316 µM
# [24] = second compound 3.16 µM, first compound 0.1 µM
# [25] = second compound 10 µM, first compound 0.000316 µM
# [26] = second compound 10 µM, first compound 0.001 µM
# [27] = second compound 10 µM, first compound 0.00316 µM
# [28] = second compound 10 µM, first compound 0.01 µM
# [29] = second compound 10 µM, first compound 0.0316 µM
# [30] = second compound 10 µM, first compound 0.1 µM
# [31] = second compound 0.1 µM, first compound 0.316 µM
# [32] = second compound 0.1 µM, first compound 1 µM
# [33] = second compound 0.1 µM, first compound 3.16 µM
# [34] = second compound 0.1 µM, first compound 10 µM
# [35] = second compound 0.316 µM, first compound 0.316 µM
# [36] = second compound 0.316 µM, first compound 1 µM
# [37] = second compound 0.316 µM, first compound 3.16 µM
# [38] = second compound 0.316 µM, first compound 10 µM
# [39] = second compound 1 µM, first compound 0.316 µM
# [40] = second compound 1 µM, first compound 1 µM
# [41] = second compound 1 µM, first compound 3.16 µM
# [42] = second compound 1 µM, first compound 10 µM
# [43] = second compound 3.16 µM, first compound 0.316 µM
# [44] = second compound 3.16 µM, first compound 1 µM
# [45] = second compound 3.16 µM, first compound 3.16 µM
# [46] = second compound 3.16 µM, first compound 10 µM
# [47] = second compound 10 µM, first compound 0.316 µM
# [48] = second compound 10 µM, first compound 1 µM
# [49] = second compound 10 µM, first compound 3.16 µM
# [50] = second compound 10 µM, first compound 10 µM
# 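Further: compound exposure lasted 7 days before the readout.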
# 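Wherever viability, T/C is given: 100% = DMSO vehicle control viability.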
smiles,measurement,setting,value
CC(C)n1nc(-c2ccc3oc(N)nc3c2)c2c(N)ncnc21 + C=CC(=O)N1CCN(c2nc(=O)n(-c3c(C)ccnc3C(C)C)c3nc(-c4c(O)cccc4F)c(F)cc23)C(C)C1,IC50,second compound 0.1 µM,10.8 nM
same,IC50,second compound 0.316 µM,9.04 nM
same,IC50,second compound 1 µM,7.94 nM
same,IC50,second compound 3.16 µM,9.47 nM
same,IC50,second compound 10 µM,8.24 nM
same,"viability, T/C",[1],106%
same,"viability, T/C",[2],89.4%
same,"viability, T/C",[3],83.5%
same,"viability, T/C",[4],48.2%
same,"viability, T/C",[5],34.3%
same,"viability, T/C",[6],26.7%
same,"viability, T/C",[7],116%
same,"viability, T/C",[8],75.7%
same,"viability, T/C",[9],77.4%
same,"viability, T/C",[10],44.8%
same,"viability, T/C",[11],33.6%
same,"viability, T/C",[12],27.2%
same,"viability, T/C",[13],100%
same,"viability, T/C",[14],117%
same,"viability, T/C",[15],87.6%
same,"viability, T/C",[16],41.2%
same,"viability, T/C",[17],27.9%
same,"viability, T/C",[18],25.1%
same,"viability, T/C",[19],108%
same,"viability, T/C",[20],94.4%
same,"viability, T/C",[21],95.6%
same,"viability, T/C",[22],47.1%
same,"viability, T/C",[23],28.9%
same,"viability, T/C",[24],22.3%
same,"viability, T/C",[25],101%
same,"viability, T/C",[26],86.4%
same,"viability, T/C",[27],69.7%
same,"viability, T/C",[28],48.4%
same,"viability, T/C",[29],25.1%
same,"viability, T/C",[30],22%
CCNC(=O)CC1N=C(c2ccc(Cl)cc2)c2cc(OC)ccc2-n2c(C)nnc21 (stereo not given) + CC1OCC2(CCN(c3cnc(Sc4ccnc(N)c4Cl)c(N)n3)CC2)C1N,IC50,second compound 0.1 µM,536 nM
same,IC50,second compound 0.316 µM,316 nM
same,IC50,second compound 1 µM,468 nM
same,IC50,second compound 3.16 µM,586 nM
same,IC50,second compound 10 µM,563 nM
same,"viability, T/C",[5],80.7%
same,"viability, T/C",[6],90.4%
same,"viability, T/C",[31],51.9%
same,"viability, T/C",[32],46.6%
same,"viability, T/C",[33],30.4%
same,"viability, T/C",[34],27.6%
same,"viability, T/C",[11],80.4%
same,"viability, T/C",[12],60.5%
same,"viability, T/C",[35],58.7%
same,"viability, T/C",[36],27.4%
same,"viability, T/C",[37],34.6%
same,"viability, T/C",[38],21.6%
same,"viability, T/C",[17],69.7%
same,"viability, T/C",[18],68.5%
same,"viability, T/C",[39],51.5%
same,"viability, T/C",[40],40.7%
same,"viability, T/C",[41],31%
same,"viability, T/C",[42],15.8%
same,"viability, T/C",[23],78.1%
same,"viability, T/C",[24],59.7%
same,"viability, T/C",[43],70.8%
same,"viability, T/C",[44],33%
same,"viability, T/C",[45],22.1%
same,"viability, T/C",[46],13.4%
same,"viability, T/C",[29],87.2%
same,"viability, T/C",[30],73.4%
same,"viability, T/C",[47],60.3%
same,"viability, T/C",[48],40.5%
same,"viability, T/C",[49],25.8%
same,"viability, T/C",[50],14.2%
CC(C)NCC(C(=O)N1CCN(c2ncnc3c2C(C)CC3O)CC1)c1ccc(Cl)cc1 (stereo not given) + C=CC(=O)N1CCN(c2nc(OCC3CCCN3C)nc3c2CCN(c2cccc4cccc(C)c24)C3)CC1CC#N,IC50,second compound 0.0316 µM,> 10000 nM
same,IC50,second compound 0.1 µM,6280 nM
same,IC50,second compound 0.316 µM,5100 nM
same,IC50,second compound 1 µM,1810 nM
same,IC50,second compound 3.16 µM,< 31.6 nM
same,"viability, T/C","second compound 0.0316 µM, first compound 0.0316 µM",111%
same,"viability, T/C","second compound 0.0316 µM, first compound 0.1 µM",86%
same,"viability, T/C","second compound 0.0316 µM, first compound 0.316 µM",72.4%
same,"viability, T/C","second compound 0.0316 µM, first compound 1 µM",79.8%
same,"viability, T/C","second compound 0.0316 µM, first compound 3.16 µM",64.3%
same,"viability, T/C","second compound 0.0316 µM, first compound 10 µM",50%
same,"viability, T/C",[5],96.8%
same,"viability, T/C",[6],86.4%
same,"viability, T/C",[31],83.1%
same,"viability, T/C",[32],101%
same,"viability, T/C",[33],62.1%
same,"viability, T/C",[34],41.8%
same,"viability, T/C",[11],100%
same,"viability, T/C",[12],89.6%
same,"viability, T/C",[35],95.4%
same,"viability, T/C",[36],64.7%
same,"viability, T/C",[37],73%
same,"viability, T/C",[38],30.4%
same,"viability, T/C",[17],79.4%
same,"viability, T/C",[18],83.1%
same,"viability, T/C",[39],64.5%
same,"viability, T/C",[40],60.1%
same,"viability, T/C",[41],42.2%
same,"viability, T/C",[42],18.4%
same,"viability, T/C",[23],1.12%
same,"viability, T/C",[24],0.47%
same,"viability, T/C",[43],0.29%
same,"viability, T/C",[44],0.37%
same,"viability, T/C",[45],0.61%
same,"viability, T/C",[46],0.46%
CN(C)C/C=C/C(=O)Nc1cc2c(Nc3ccc(F)c(Cl)c3)ncnc2cc1O[C@H]1CCOC1 + CNCc1ccccc1-c1csc(C(C)Nc2nc(C)nc3cc(OC)c(OC)cc23)c1,IC50,second compound 0.1 µM,> 100 nM
same,IC50,second compound 0.316 µM,> 100 nM
same,IC50,second compound 1 µM,0.489 nM
same,IC50,second compound 3.16 µM,2.02 nM
same,IC50,second compound 10 µM,< 0.316 nM
same,"viability, T/C",[1],88%
same,"viability, T/C",[2],80.3%
same,"viability, T/C",[3],90.3%
same,"viability, T/C",[4],97.7%
same,"viability, T/C",[5],78%
same,"viability, T/C",[6],88%
same,"viability, T/C",[7],114%
same,"viability, T/C",[8],104%
same,"viability, T/C",[9],106%
same,"viability, T/C",[10],76.7%
same,"viability, T/C",[11],78.4%
same,"viability, T/C",[12],79.8%
same,"viability, T/C",[13],69.9%
same,"viability, T/C",[14],12.7%
same,"viability, T/C",[15],16.5%
same,"viability, T/C",[16],21.8%
same,"viability, T/C",[17],33.7%
same,"viability, T/C",[18],1.43%
same,"viability, T/C",[19],94.4%
same,"viability, T/C",[20],108%
same,"viability, T/C",[21],0.36%
same,"viability, T/C",[22],0.29%
same,"viability, T/C",[23],68.5%
same,"viability, T/C",[24],0.32%
same,"viability, T/C",[25],0.23%
same,"viability, T/C",[26],0.22%
same,"viability, T/C",[27],0.24%
same,"viability, T/C",[28],0.45%
same,"viability, T/C",[29],0.17%
same,"viability, T/C",[30],0.22%
CC1(C)CCC(CN2CCN(c3ccc(C(=O)NS(=O)(=O)c4ccc(NCC5CCOCC5)c([N+](=O)[O-])c4)c(Oc4cnc5[nH]ccc5c4)c3)CC2)=C(c2ccc(Cl)cc2)C1 + C=CC(=O)N1CCN(c2nc(=O)n(-c3c(C)ccnc3C(C)C)c3nc(-c4c(O)cccc4F)c(F)cc23)C(C)C1,IC50,second compound 0.1 µM,2240 nM
same,IC50,second compound 0.316 µM,1820 nM
same,IC50,second compound 1 µM,1990 nM
same,IC50,second compound 3.16 µM,2120 nM
same,IC50,second compound 10 µM,1770 nM
same,"viability, T/C",[5],107%
same,"viability, T/C",[6],85%
same,"viability, T/C",[31],84.2%
same,"viability, T/C",[32],103%
same,"viability, T/C",[33],30.8%
same,"viability, T/C",[34],5.11%
same,"viability, T/C",[11],86.8%
same,"viability, T/C",[12],102%
same,"viability, T/C",[35],96.8%
same,"viability, T/C",[36],71.6%
same,"viability, T/C",[37],29.5%
same,"viability, T/C",[38],10.2%
same,"viability, T/C",[17],86.5%
same,"viability, T/C",[18],104%
same,"viability, T/C",[39],79.9%
same,"viability, T/C",[40],91.7%
same,"viability, T/C",[41],22.5%
same,"viability, T/C",[42],2.37%
same,"viability, T/C",[23],76.4%
same,"viability, T/C",[24],98%
same,"viability, T/C",[43],109%
same,"viability, T/C",[44],99%
same,"viability, T/C",[45],25.7%
same,"viability, T/C",[46],8.95%
same,"viability, T/C",[29],98.5%
same,"viability, T/C",[30],75.2%
same,"viability, T/C",[47],83.1%
same,"viability, T/C",[48],76.5%
same,"viability, T/C",[49],23.1%
same,"viability, T/C",[50],3.34%
